Measurements from ChEMBL document CHEMBL3132793, “Novel FK506 and FK520 analogues via mutasynthesis: mutasynthon scope and product characteristics” (Medchemcomm, 2013).
≈ marks a conversion by molar mass, not a printed value.

Legend:
[1] = Solubility of the compound in phosphate buffered saline; assay type: physicochemical
[2] = Half life in human liver microsomes; assay type: ADME
[3] = Half life in mouse liver microsomes; assay type: ADME, Microsome
[4] = Inhibition of calcineurin in human Jurkat cells assessed as inhibition of NFAT-mediated IL-2 production after 8 hrs by beta-lactamase reporter gene assay; assay type: cell-based
[5] = phosphate buffered saline, read-out: solubility

solubility ([1]; buffer)	half-life [2]	half-life [3]	IC50 [4]	solubility [1, 5]	Compound
40.2 µM (≈ 31.8 µg/mL)	2.4 min	17.4 min	0.205 nM		CC[C@@H]1/C=C(\C)C[C@H](C)C[C@H](OC)[C@H]2O[C@@](O)(C(=O)C(=O)N3CCCC[C@H]3C(=O)O[C@H](/C(C)=C/[C@@H]3CC[C@@H](O)[C@H](OC)C3)[C@H](C)[C@@H](O)CC1=O)[C@H](C)C[C@@H]2OC [ASCOMYCIN]
	2.4 min	22.1 min	0.056 nM	42.4 µM (≈ 34.1 µg/mL)	C=CC[C@@H]1/C=C(\C)C[C@H](C)C[C@H](OC)[C@H]2O[C@@](O)(C(=O)C(=O)N3CCCC[C@H]3C(=O)O[C@H](/C(C)=C/[C@@H]3CC[C@@H](O)[C@H](OC)C3)[C@H](C)[C@@H](O)CC1=O)[C@H](C)C[C@@H]2OC [TACROLIMUS ANHYDROUS]
	2.6 min	9 min	0.145 nM	1.3 µM (≈ 1.01 µg/mL)	C=CC[C@@H]1/C=C(\C)C[C@H](C)C[C@H](OC)[C@H]2O[C@@](O)(C(=O)C(=O)N3CCCC[C@H]3C(=O)O[C@H](/C(C)=C/[C@H]3CC[C@H](O)CC3)[C@H](C)[C@@H](O)CC1=O)[C@H](C)C[C@@H]2OC
	3.1 min	3.8 min	0.072 nM	86.5 µM (≈ 67.1 µg/mL)	CC[C@@H]1/C=C(\C)C[C@H](C)C[C@H](OC)[C@H]2O[C@@](O)(C(=O)C(=O)N3CCCC[C@H]3C(=O)O[C@H](/C(C)=C/[C@H]3CCCC(O)CC3)[C@H](C)[C@@H](O)CC1=O)[C@H](C)C[C@@H]2OC (stereo not given in full)
	3.2 min	11.3 min	0.082 nM	35.6 µM (≈ 27.8 µg/mL)	CC[C@@H]1/C=C(\C)C[C@H](C)C[C@H](OC)[C@H]2O[C@@](O)(C(=O)C(=O)N3CCCC[C@H]3C(=O)O[C@H](/C(C)=C/[C@@H]3CC[C@@H](O)[C@@H](F)C3)[C@H](C)[C@@H](O)CC1=O)[C@H](C)C[C@@H]2OC
			0.283 nM		CO[C@H]1C[C@@H](C)C/C(C)=C/[C@@H](C)C(=O)C[C@H](O)[C@@H](C)[C@@H](/C(C)=C/[C@@H]2CC[C@@H](O)[C@@H](F)C2)OC(=O)[C@@H]2CCCCN2C(=O)C(=O)[C@]2(O)O[C@H]1[C@@H](OC)C[C@H]2C
	5.7 min	3 min	0.433 nM	0.7 µM (≈ 0.529 µg/mL)	C=CC[C@@H]1/C=C(\C)C[C@H](C)C[C@H](OC)[C@H]2O[C@@](O)(C(=O)C(=O)N3CCCC[C@H]3C(=O)O[C@H](/C(C)=C/[C@H]3CC=CCC3)[C@H](C)[C@@H](O)CC1=O)[C@H](C)C[C@@H]2OC
	1.8 min	7.6 min	0.461 nM	13.4 µM (≈ 10 µg/mL)	CC[C@@H]1/C=C(\C)C[C@H](C)C[C@H](OC)[C@H]2O[C@@](O)(C(=O)C(=O)N3CCCC[C@H]3C(=O)O[C@H](/C(C)=C/C3CCOCC3)[C@H](C)[C@@H](O)CC1=O)[C@H](C)C[C@@H]2OC
			0.249 nM		CC[C@@H]1/C=C(\C)C[C@H](C)C[C@H](OC)[C@H]2O[C@@](O)(C(=O)C(=O)N3CCCC[C@H]3C(=O)O[C@H](/C(C)=C/[C@H]3CC[C@H](O)CC3)[C@H](C)[C@@H](O)CC1=O)[C@H](C)C[C@@H]2OC
